# Measured values: ChEMBL document CHEMBL1201862, “PubChem BioAssay data set” (2004)
# “And” between values parts separate entries of the source, which are not always exact repeats. Identical values can stand only once. The source made the active and inactive calls.
# Experiments:
# Coagulation factor XII = molecular target: T1, Coagulation factor XII (Homo sapiens, UniProt P00748); format: functional;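 note: activated factor XIIa alpha cleaving a fluorogenic AMC peptide substrate; inhibitor potency from loss of enzyme activity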
# T1 sequence (P00748 whole entry): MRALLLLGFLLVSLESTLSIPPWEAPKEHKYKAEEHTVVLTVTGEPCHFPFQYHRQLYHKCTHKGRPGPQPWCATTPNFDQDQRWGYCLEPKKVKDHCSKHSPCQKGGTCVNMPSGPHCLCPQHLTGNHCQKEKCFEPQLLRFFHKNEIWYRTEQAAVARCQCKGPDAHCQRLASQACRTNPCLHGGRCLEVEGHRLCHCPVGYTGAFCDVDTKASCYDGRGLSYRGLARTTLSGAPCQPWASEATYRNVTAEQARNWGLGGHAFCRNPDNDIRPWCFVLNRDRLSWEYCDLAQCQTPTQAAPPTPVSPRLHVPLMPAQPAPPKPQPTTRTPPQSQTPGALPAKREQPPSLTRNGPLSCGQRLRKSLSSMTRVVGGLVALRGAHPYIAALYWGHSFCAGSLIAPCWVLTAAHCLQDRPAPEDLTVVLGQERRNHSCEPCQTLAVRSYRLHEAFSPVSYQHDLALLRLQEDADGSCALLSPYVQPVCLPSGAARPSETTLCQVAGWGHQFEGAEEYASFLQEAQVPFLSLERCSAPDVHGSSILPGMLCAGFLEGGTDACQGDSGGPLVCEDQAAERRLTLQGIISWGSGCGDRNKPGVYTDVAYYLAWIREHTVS
# [1] = molecular target: DNA dC->dU-editing enzyme APOBEC-3A (Homo sapiens, UniProt P31941); test: A3A deaminase inhibition for selectivity – biochemical, dose response (AID 504722); format: functional
# DNA dC->dU-editing enzyme APOBEC-3A, sequence (P31941 whole entry): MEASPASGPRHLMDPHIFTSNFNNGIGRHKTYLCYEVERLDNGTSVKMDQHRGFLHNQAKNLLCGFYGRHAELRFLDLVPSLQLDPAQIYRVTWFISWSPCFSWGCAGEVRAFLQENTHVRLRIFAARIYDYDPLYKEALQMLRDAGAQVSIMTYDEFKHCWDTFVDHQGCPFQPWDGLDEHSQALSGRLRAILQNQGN
# [2] = molecular target: DNA dC->dU-editing enzyme APOBEC-3G (Homo sapiens, UniProt Q9HC16); test: Dose Response confirmation of small molecule APOBEC3G DNA Deaminase Inhibitors via a fluorescence-based single-stranded DNA deaminase assay. [Related pubchem assays (depositor defined):AID493012, AID493028]; format: functional
# DNA dC->dU-editing enzyme APOBEC-3G, sequence (Q9HC16 whole entry, the tested form may be a part): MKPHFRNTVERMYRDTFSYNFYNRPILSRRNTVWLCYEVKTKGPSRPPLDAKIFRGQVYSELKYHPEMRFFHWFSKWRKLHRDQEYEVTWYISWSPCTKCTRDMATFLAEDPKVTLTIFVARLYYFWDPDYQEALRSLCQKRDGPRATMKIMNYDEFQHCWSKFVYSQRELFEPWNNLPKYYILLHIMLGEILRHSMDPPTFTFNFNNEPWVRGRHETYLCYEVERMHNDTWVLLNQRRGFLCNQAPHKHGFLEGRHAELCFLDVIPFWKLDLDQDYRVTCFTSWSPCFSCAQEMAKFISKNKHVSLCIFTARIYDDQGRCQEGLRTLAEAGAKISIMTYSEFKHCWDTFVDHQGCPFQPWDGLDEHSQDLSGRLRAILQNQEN
# [3] = molecular target: T2, RNA-binding protein pos-1 (Caenorhabditis elegans, UniProt G5EF15); test: disruptors of C. elegans POS-1 RNA interaction – biochemical, fluorescence polarization, dose response (AID 1964);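 note: purified POS-1 fused to maltose binding protein made in E. coli; potency of compounds blocking POS-1 binding to fluorescent RNA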
# T2 sequence (G5EF15 whole entry): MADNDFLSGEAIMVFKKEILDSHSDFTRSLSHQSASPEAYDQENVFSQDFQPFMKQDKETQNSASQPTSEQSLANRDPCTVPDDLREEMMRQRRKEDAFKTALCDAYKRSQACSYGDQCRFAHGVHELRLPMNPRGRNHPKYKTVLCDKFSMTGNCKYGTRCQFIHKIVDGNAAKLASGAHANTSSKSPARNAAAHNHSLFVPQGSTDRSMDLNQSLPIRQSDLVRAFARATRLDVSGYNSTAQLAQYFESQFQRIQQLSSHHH
# [4] = molecular target: T3, Zinc finger protein mex-5 (Caenorhabditis elegans, UniProt Q9XUB2); test: potency of MEX-5 RNA-binding blockers – biochemical, C. elegans, fluorescence polarization, dose response (AID 1960)
# T3 sequence (Q9XUB2 whole entry): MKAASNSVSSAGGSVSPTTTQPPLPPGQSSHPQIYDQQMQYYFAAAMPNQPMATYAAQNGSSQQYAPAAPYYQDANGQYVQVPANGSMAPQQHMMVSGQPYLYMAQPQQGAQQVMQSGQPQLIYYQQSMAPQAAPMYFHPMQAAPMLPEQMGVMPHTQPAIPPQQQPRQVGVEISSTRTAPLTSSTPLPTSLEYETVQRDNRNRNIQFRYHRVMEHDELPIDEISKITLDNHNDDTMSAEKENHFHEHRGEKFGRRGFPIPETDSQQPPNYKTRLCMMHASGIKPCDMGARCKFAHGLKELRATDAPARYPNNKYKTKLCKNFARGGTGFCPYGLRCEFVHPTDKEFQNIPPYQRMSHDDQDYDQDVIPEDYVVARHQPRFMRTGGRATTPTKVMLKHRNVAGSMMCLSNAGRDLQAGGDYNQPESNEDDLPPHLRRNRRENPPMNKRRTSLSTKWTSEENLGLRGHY
# [5] = molecular target: T4, Mannose-6-phosphate isomerase (Homo sapiens, UniProt P34949); test: MPI enzyme activity inhibition – biochemical, fluorescence intensity, coupled assay, primary screen (AID 1209)
# T4 sequence (P34949 whole entry): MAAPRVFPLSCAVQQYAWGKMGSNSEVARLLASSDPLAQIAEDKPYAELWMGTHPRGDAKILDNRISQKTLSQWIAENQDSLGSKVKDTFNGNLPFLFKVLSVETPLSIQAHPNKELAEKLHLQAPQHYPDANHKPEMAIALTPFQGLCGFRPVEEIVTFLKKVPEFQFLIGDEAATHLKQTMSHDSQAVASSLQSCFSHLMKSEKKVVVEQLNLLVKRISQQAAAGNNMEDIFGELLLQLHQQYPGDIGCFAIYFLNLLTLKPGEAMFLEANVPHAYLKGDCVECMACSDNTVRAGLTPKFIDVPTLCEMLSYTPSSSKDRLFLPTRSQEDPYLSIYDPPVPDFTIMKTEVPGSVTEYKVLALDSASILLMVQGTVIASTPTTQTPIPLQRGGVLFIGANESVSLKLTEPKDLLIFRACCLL
# [6] = molecular target: Eukaryotic translation initiation factor 4E (Mus musculus, UniProt P63073); test: blockers of eIF4G binding by eIF4E – biochemical, TR-FRET, dose response (AID 855); format: functional;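 note: potency for disrupting eIF4E binding to eIF4GI seen as loss of FRET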
# Eukaryotic translation initiation factor 4E, sequence (P63073 whole entry): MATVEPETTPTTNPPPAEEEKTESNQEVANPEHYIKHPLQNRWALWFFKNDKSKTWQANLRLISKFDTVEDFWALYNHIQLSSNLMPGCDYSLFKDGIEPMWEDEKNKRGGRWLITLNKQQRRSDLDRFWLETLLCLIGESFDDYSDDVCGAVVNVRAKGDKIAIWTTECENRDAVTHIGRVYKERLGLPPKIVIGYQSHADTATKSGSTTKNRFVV
# Nonstructural protein 1 = Nonstructural protein 1 (Influenza A virus, UniProt Q194T2); format: functional, Influenza A virus (A/California/07/2009(H1N1))
# Nonstructural protein 1, sequence (Q194T2 whole entry): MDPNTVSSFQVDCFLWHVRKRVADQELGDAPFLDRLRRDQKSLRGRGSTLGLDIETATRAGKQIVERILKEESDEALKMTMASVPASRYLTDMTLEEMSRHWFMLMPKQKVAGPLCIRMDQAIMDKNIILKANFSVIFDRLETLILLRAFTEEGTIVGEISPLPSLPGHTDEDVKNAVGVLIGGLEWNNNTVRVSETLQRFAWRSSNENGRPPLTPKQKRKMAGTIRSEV
# [7] = molecular target: Ras and Rab interactor 1/Tyrosine-protein kinase ABL1 (Homo sapiens, UniProt P00519+Q13671); format: functional;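 note: biochemical TR-FRET dose-response test measuring inhibition of binding between Rin1 and Abl proteins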
# Ras and Rab interactor 1/Tyrosine-protein kinase ABL1, sequence (P00519 whole entry): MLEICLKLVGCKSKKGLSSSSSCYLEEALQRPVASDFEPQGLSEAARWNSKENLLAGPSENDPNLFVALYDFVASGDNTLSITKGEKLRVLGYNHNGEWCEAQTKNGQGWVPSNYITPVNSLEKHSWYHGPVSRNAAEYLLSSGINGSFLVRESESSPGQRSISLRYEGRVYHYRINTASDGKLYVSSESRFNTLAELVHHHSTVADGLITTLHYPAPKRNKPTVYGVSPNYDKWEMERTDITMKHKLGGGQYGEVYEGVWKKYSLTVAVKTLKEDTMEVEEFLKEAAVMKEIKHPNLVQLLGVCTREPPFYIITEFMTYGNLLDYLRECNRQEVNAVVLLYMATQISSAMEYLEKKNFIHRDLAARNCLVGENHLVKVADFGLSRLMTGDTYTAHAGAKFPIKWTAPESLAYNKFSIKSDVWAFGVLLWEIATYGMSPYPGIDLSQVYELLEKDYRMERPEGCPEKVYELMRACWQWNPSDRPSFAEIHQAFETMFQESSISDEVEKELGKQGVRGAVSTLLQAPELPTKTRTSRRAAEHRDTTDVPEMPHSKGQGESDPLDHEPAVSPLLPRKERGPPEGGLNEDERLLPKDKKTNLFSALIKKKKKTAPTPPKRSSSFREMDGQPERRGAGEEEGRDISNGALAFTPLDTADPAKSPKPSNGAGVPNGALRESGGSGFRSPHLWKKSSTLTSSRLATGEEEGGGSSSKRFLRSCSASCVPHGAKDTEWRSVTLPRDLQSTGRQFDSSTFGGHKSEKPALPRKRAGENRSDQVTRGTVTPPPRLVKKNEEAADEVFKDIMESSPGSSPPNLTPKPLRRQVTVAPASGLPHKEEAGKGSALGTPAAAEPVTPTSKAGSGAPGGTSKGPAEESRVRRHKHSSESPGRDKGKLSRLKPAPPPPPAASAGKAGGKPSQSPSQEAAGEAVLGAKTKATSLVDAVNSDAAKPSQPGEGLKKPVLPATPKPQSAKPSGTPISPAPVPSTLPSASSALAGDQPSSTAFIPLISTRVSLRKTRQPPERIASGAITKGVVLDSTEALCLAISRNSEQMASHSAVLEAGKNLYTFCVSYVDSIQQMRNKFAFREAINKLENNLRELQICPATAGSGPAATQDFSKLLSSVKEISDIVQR
# Ras and Rab interactor 1/Tyrosine-protein kinase ABL1, sequence (Q13671 whole entry): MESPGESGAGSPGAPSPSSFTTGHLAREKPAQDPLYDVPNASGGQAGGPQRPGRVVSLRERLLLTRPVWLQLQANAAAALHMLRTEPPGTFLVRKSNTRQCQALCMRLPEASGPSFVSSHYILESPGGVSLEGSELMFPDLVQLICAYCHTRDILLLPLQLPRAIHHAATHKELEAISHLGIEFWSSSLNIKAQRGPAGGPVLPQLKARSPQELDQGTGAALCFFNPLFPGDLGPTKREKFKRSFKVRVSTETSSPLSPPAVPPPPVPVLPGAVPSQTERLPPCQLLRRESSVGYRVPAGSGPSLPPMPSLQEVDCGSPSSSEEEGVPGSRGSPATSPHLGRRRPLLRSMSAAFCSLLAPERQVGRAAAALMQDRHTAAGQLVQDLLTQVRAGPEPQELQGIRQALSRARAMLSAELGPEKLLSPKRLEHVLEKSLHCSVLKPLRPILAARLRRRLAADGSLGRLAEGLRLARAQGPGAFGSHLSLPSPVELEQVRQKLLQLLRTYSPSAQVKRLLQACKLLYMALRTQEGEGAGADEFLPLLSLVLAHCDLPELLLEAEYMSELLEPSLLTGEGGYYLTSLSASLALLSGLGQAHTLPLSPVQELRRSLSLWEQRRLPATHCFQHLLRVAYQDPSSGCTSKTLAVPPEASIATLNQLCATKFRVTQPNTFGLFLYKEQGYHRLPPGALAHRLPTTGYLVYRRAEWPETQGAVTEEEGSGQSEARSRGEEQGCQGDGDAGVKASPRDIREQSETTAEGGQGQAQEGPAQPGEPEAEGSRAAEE
# [8] = molecular target: T5, Long-chain-fatty-acid--AMP ligase FadD28 (Mycobacterium tuberculosis, UniProt P9WQ59); test: Fluorescence polarization aasay to screen for inhibitors that compete for the binding of FadD28 to a bisubstrate Measured in Biochemical System Using Plate Reader - 2147-01_Inhibitor_Dose_CherryPick_Activity.; format: functional, Mycobacterium tuberculosis H37Rv
# T5 sequence (P9WQ59 whole entry): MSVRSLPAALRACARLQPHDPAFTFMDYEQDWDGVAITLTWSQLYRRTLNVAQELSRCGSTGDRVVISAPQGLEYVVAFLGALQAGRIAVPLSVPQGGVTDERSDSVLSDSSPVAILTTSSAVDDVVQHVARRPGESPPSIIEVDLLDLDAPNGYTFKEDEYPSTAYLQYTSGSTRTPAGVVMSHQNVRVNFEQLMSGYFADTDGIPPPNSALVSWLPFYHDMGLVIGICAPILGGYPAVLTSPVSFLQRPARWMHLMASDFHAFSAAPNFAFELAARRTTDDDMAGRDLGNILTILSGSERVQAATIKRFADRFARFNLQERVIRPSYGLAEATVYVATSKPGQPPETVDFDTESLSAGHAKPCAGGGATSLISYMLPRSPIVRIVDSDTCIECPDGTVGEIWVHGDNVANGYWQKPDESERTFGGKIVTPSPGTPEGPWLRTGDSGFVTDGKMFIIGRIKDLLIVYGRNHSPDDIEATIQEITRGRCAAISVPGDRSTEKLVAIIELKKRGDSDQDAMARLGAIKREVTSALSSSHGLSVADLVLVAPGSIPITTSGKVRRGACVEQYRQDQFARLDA
# Protein Tat = molecular target: T6, Protein Tat (Human immunodeficiency virus type 1 group M subtype B (isolate HXB2)(HIV-1), UniProt P04608); format: functional;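 note: tat binding to TAR RNA read out by fluorescence polarization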
# T6 sequence (P04608 whole entry): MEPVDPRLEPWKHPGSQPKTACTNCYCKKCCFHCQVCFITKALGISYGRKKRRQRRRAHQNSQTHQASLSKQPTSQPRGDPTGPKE
# [9] = THP-1 cell cytotoxicity, dose response, cytotoxicity control for non-replicating M. tuberculosis project (AID 489025); format: functional
# [10] = HepG2 cell cytotoxicity, dose response, cytotoxicity control for non-replicating M. tuberculosis project (AID 489018); format: functional; settings: Mycobacterium tuberculosis
# [11] = Vero E6 cell cytotoxicity, dose response, cytotoxicity control for non-replicating M. tuberculosis project, secondary assay (AID 492998); format: functional, VeroE6; settings: Vero C1008
# cells = format: functional
# [12] = molecular target: G-protein coupled receptor 55 (Homo sapiens, UniProt Q9Y2T6); test: inhibition of LPI-stimulated GPR55 beta-arrestin translocation – imaging, U2OS, beta-arrestin-GFP, LPI agonist, primary screen (AID 2013); format: functional;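 note: antagonist potency measured as reduced agonist-driven arrestin aggregation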
# G-protein coupled receptor 55, sequence (Q9Y2T6 whole entry): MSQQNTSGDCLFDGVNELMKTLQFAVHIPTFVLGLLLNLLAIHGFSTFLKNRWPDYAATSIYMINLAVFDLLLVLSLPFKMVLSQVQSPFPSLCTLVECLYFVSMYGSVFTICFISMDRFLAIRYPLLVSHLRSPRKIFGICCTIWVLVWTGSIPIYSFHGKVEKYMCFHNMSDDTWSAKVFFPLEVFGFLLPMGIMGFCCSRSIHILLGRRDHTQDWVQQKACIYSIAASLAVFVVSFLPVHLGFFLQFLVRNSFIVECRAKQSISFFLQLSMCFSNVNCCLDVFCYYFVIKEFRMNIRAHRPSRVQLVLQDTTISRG
# [13] = tested on: Streptococcus sp. 'group A'; test: Streptococcus pyogenes SK(-)GAS viability under kanamycin – luminescence, BacTiterGlo, confirmation, counter-screen for streptokinase expression inhibitor project, dose response (AID 1900); format: functional, organism-based
# Streptokinase A = molecular target: T7, Streptokinase A (Streptococcus pyogenes serotype M1, UniProt P10520); test: viability-normalized secreted streptokinase activity reduction – plasminogen activation absorbance, OD405, dose response (AID 1914); format: functional, Streptococcus pyogenes M1 GAS;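 note: secreted streptokinase activity via plasminogen activation per viability signal from cell pellet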
# T7 sequence (P10520 whole entry): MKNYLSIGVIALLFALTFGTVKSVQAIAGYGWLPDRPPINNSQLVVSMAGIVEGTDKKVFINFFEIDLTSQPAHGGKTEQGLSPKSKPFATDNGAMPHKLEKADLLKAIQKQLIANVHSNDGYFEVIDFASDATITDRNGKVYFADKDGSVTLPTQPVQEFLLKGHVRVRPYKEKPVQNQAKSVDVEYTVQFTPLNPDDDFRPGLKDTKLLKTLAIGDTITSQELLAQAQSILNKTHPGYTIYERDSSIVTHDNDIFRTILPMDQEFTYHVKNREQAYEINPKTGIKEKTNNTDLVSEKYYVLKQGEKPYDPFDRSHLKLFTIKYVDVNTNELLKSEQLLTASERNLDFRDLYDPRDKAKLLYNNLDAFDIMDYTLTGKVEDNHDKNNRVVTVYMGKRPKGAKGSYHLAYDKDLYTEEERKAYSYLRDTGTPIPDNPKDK
# Streptococcus = test: GAS UMAA2166 growth inhibition – luminescence, BacTiterGlo, counter-screen for streptokinase expression inhibitor project, dose response (AID 1915); format: functional, organism-based;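 note: potency for reduction of bacterial viability or growth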
# [14] = molecular target: T8, Short transient receptor potential channel 4 (Mus musculus, UniProt Q9QUQ5); test: block of DAMGO-driven TRPC4 calcium entry – cell-based, HEK293 TRPC4/mu-opioid, Fluo-4 calcium, dose response (AID 434942); format: functional;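 note: potency of inhibitors blocking the TRPC4 calcium response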
# T8 sequence (Q9QUQ5 whole entry): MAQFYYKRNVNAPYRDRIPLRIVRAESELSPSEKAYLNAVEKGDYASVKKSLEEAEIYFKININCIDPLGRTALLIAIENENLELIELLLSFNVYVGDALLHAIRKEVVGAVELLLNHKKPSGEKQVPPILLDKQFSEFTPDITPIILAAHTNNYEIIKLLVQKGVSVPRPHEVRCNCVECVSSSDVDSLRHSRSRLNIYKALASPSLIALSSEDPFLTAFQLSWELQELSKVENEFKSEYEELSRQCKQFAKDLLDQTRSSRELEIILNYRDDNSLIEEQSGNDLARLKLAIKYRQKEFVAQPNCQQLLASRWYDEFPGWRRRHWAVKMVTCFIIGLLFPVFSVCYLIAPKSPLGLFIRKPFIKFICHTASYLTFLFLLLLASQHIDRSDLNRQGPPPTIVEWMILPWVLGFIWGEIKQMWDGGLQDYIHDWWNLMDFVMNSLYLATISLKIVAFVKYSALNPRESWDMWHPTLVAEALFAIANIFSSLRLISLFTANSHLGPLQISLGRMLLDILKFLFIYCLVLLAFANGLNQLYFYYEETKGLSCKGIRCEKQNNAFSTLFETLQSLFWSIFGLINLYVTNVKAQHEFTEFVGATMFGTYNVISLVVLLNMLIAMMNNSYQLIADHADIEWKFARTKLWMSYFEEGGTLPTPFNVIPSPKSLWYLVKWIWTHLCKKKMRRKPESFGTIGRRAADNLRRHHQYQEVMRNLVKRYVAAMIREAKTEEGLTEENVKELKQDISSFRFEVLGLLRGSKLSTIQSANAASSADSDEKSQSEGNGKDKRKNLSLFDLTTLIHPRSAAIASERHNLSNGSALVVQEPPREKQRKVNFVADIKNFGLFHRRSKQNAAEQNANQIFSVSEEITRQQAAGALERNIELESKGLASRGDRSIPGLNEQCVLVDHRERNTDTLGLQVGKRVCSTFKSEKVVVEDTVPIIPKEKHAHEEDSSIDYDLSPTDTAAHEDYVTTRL
smiles,measurement,setting,value
CC(=O)NC(CC(=O)OCC(=O)c1c(N)n(C)c(=O)n(C)c1=O)c1ccccc1 (centres undefined),IC50,Coagulation factor XII,> 50 µM (inactive)
Cc1cc(-c2nnc(S)n2/N=C/c2ccc(C)o2)n[nH]1,IC50,[1],> 100 µM (inactive)
same,IC50,[2],5.66 µM (active)
Cc1nc(SCc2ccccc2)c2ccsc2n1,IC50,Coagulation factor XII,> 50 µM (inactive)
CCn1c(S)nnc1CSCc1ccccc1,IC50,[1],> 100 µM (inactive)
same,IC50,[2],8.31 µM (active)
Cc1c2cc(O)c(=O)cc-2oc2cc(O)c(O)cc12,EC50,[3],1.9 µM (inconclusive)
same,EC50,[4],0.082 µM (active)
same,IC50,[5],3.55 µM (active)
same,IC50,[6],43.3 µM (inactive)
same,IC50,Nonstructural protein 1,30.5 µM (active)
same,IC50,[7],0.835 µM (active)
same,AC50,[8],4.65 µM (active)
same,IC50,Protein Tat,31.3 µM (inconclusive) and > 52.2 µM (active)
Cc1ccc(-n2c(C)cc(C3=NN=C(NC4CC4)SC3)c2C)cc1C,CC50,[9],20 µM (active)
same,CC50,[10],> 20 µM (active)
same,CC50,[11],> 20 µM (active)
same,IC50,cells,39 µM (active)
CC(C)CC(=O)NC(Oc1ccc(Cl)cc1)C(Cl)(Cl)Cl (centres undefined),IC50,[12],1.17 µM (active)
N#Cc1cnn(Cc2ccc(Cl)cc2)c1N,IC50,Coagulation factor XII,> 50 µM (inactive)
O=C(Nc1nnc(-c2ccncc2)o1)c1ccc(Br)s1,EC50,[13],3.57 µM (active)
same,EC50,Streptokinase A,> 150 µM (not active)
same,EC50,Streptococcus,11.8 µM (active)
same,CC50,[9],23.7 µM (active)
same,CC50,[10],19.3 µM (active)
same,CC50,[11],16.8 µM (active)
same,IC50,cells,18.3 µM (active)
CCOC(=O)c1c(N)sc(C(O)(C(F)(F)F)C(F)(F)F)c1-c1ccccc1,IC50,[12],3.66 µM (active)
same,EC50,[14],7.5 µM (active)
